Results taken from ChEMBL document CHEMBL3396948 (Bioorg Med Chem, 2015).
The source made the active and inactive calls. The calls are words filed in the database; no cut-off is given here.

Experiments:
Saccharomyces cerevisiae = assay: Inhibition of yeast glutathione reductase assessed as reduction of glutathione disulfide up to 250 uM by spectrophotometrically
Trypanothione reductase = Trypanothione reductase (Trypanosoma cruzi, UniProt P28593); assay: Inhibition of Trypanosoma cruzi trypanothione reductase assessed as reduction of trypanothione disulfide by spectrophotometrically
[1] = system: Trypanosoma brucei brucei; assay: Trypanocidal activity against drug-sensitive Trypanosoma brucei brucei Lab 110 EATRO assessed as inhibition of trypanosomes after 48 hrs; type: functional, organism-based
[2] = system: Trypanosoma brucei rhodesiense; assay: Trypanocidal activity against clinical isolate Trypanosoma brucei rhodesiense KETRI 269 assessed as inhibition of trypanosomes after 48 hrs; type: functional, organism-based; conditions: KETRI 269, 48 h
[3] = system: Trypanosoma brucei rhodesiense; assay: Trypanocidal activity against clinical isolate Trypanosoma brucei rhodesiense KETRI 243 assessed as inhibition of trypanosomes after 48 hrs; type: functional, organism-based; conditions: KETRI 243, 48 h
Mus musculus [4] = assay: Toxicity in drug-sensitive Trypanosoma brucei brucei Lab 110 EATRO infected in female Swiss-Webster mouse assessed as death at 50 mg/kg, ip once daily for 3 days relative to control; type: organism-based; parameters: dose 50 mg/kg, route intraperitoneal; conditions: in vivo, 72 h
[5] = system: Trypanosoma brucei rhodesiense; assay: Trypanocidal activity against pentamidine and melarsoprol-resistant Trypanosoma brucei rhodesiense K 243-As-10-3 assessed as inhibition of trypanosomes after 48 hrs; type: functional, organism-based; conditions: K 243-As-10-3, 48 h
[6] = system: Trypanosoma brucei brucei; assay: In vivo trypanocidal activity against drug-sensitive Trypanosoma brucei brucei Lab 110 EATRO infected in female Swiss-Webster mouse assessed as life prolongation at 50 mg/kg, ip administered in 2 daily doses for 3 days relative to control; type: functional, organism-based; parameters: dose 50 mg/kg
Trypanosoma brucei = assay: Trypanocidal activity against bloodstream form of Trypanosoma brucei assessed as inhibition of trypanosomes after 48 hrs; type: functional, organism-based
Mus musculus [7] = assay: Toxicity in drug-sensitive Trypanosoma brucei brucei Lab 110 EATRO infected in female Swiss-Webster mouse assessed as death at 1 to 25 mg/kg, ip once daily for 3 days relative to control; type: organism-based; parameters: dose 1-25 mg/kg, route intraperitoneal; conditions: in vivo, 72 h
[8] = system: Trypanosoma brucei brucei; assay: In vivo trypanocidal activity against drug-sensitive Trypanosoma brucei brucei Lab 110 EATRO infected in female Swiss-Webster mouse assessed as life prolongation at 1 to 25 mg/kg, ip once daily for 3 days relative to control; type: functional, organism-based

Chain of Trypanothione reductase (P28593 whole entry): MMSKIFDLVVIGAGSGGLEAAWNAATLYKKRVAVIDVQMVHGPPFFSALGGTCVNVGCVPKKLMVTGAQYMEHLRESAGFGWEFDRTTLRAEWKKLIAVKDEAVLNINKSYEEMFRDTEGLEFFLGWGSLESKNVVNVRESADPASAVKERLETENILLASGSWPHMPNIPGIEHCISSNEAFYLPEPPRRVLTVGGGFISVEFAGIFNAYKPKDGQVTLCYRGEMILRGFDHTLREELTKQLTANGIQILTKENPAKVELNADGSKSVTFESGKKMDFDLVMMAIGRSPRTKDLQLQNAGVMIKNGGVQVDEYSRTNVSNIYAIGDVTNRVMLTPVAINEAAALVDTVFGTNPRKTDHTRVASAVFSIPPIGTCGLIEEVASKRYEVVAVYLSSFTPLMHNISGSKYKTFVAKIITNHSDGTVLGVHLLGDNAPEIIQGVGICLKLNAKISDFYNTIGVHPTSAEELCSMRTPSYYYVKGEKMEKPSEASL

Structure (SMILES)	inhibition (Saccharomyces cerevisiae)	Ki (Trypanothione reductase) [µM]	IC50 [1] [µM]	IC50 [2] [µM]	IC50 [3] [µM]	Activity (Mus musculus [4])	IC50 [5] [µM]	Activity [6]	EC50 (Trypanosoma brucei) [µM]	Activity (Mus musculus [7])	Activity [8]
NCCCN(CCCCN(CCCN)C1c2ccccc2CCc2ccccc21)C1c2ccccc2CCc2ccccc21	inactive	0.255	2.55	1.69	1.5	Toxic	22	Active	–	–	–
CN(C)CCCN1c2ccccc2CCc2ccc(Cl)cc21 [CLOMIPRAMINE]	inactive	–	–	–	–	–	–	–	5.05	–	–
NCCCCN(CCCN)C1c2ccccc2CCc2ccccc21	inactive	4	0.62	4.3	4.5	–	8.3	–	–	Toxic	inactive

Second part, led by results:

inhibition (Saccharomyces cerevisiae)	Ki (Trypanothione reductase) [µM]	Structure (SMILES)	IC50 [1] [µM]	IC50 [2] [µM]	IC50 [3] [µM]	Activity (Mus musculus [4])	IC50 [5] [µM]	Activity [6]	EC50 (Trypanosoma brucei) [µM]	Activity (Mus musculus [7])	Activity [8]
inactive	27.9	NCCN(CCN)C1c2ccccc2CCc2ccccc21	2.8	–	–	–	–	–	–	–	–
inactive	7.62	NCCCN(CCCN)C1c2ccccc2CCc2ccccc21	–	–	–	–	–	–	–	–	–
inactive	136	CN(C)CCNC1c2ccccc2CCc2ccccc21	1.68	–	2	–	–	–	–	–	–
inactive	81.6	CN(C)CCCNC1c2ccccc2CCc2ccccc21	1.38	–	–	–	–	–	–	–	–
